Source: patent US20100104614A1, “PROVIDONE COMPOSITIONS FOR WOUND HEALING” (priority 2008, published 2010)

Test: Treatment of non-healing dog bite wounds in a patient (Example 1)
Type: in vivo, human
Details: course of antibiotics (a cephalosporin and flagyl) and daily dressing changes; after five weeks
Method: A patient presented with six non-healing dog bite wounds, one on their forearm, and the rest on their lower extremeties. Their wounds were treated with a course of antibiotics (a cephalosporin and flagyl) and daily dressing changes. […] Further treatment with hyperbaric oxygen was being contemplated.
Approximately one tablespoon of povidone powder was sprinkled over the patient's wounds. Within four days, wounds had completely healed.

Compound: Cc1ncc([N+](=O)[O-])n1CCO [flagyl]
- wound healing outcome of prior treatment: remained unhealed
